The numbers were not newly measured in patent publication EP2382994A1, “Ligand targeted nanocapsules for the delivery of RNAi and other agents” (Cattaneo, Maurizio Victor, priority 2010, dated 2011), which cites them from elsewhere.

The conditions of series [1]: systemic delivery of 20 mg DOX; Tang et al. 2007.

Structures are written as SMILES. Where only a bound is given, the exact number is not on record here.

As to `COc1cccc2c1C(=O)c1c(O)c3c(c(O)c1C2=O)C[C@@](O)(C(=O)CO)C[C@@H]3O[C@H]1C[C@H](N)[C@H](O)[C@H](C)O1` [DOX, Doxorubicin], the “lethal toxicity, time of treatment” value in series [1] was not above 8 days. Moreover, the “clinical efficacy in melanoma” value in the series on advanced stage melanoma is “essentially ineffective”.
